From ChEMBL document CHEMBL1142028, “(E)-Phenyl- and -heteroaryl-substituted O-benzoyl-(or acyl)oximes as lipoprotein-associated phospholipase A2 inhibitors” (Bioorg Med Chem Lett, 2005)

Target: T1, Platelet-activating factor acetylhydrolase (Homo sapiens, UniProt Q13093)
T1 sequence (Q13093 whole entry): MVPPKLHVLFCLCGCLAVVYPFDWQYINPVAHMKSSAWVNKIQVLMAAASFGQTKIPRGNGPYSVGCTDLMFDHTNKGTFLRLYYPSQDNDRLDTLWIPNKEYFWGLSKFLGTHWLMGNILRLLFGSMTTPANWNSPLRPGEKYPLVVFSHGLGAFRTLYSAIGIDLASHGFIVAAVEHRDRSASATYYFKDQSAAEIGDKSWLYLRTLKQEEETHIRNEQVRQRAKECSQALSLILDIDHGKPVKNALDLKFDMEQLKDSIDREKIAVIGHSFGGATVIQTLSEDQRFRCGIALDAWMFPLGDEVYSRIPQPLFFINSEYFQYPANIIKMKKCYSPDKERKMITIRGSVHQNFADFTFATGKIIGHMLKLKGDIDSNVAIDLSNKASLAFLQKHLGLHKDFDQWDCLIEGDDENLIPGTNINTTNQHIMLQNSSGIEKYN
Experiment: In vitro inhibitory activity against human lipoprotein-associated phospholipase A2; NA - not active; call rule not given here

IC50: Not Active
SMILES: O=C(ON=C(c1ccccc1)c1ccccc1)c1ccccc1 [(DIPHENYLMETHYLIDENE)AMINO BENZOATE]
